# Measured values: patent US20030166161A1, “Gene that imparts selective proliferative activity” (priority 1997, published 2003)
# B1: G-CSF: cytokine (hematopoietic factor); human G-CSF provided by Chugai Pharmaceuticals (protein)
# chain: TPLGPASSLPQSFLLKCLEQVRKIQGDGAALQEKLCATYKLCHPEELVLLGHSLGIPWAPLSSCPSQALQLAGCLSQLHSGLFLYQGLLQALEGISPELGPTLDTLQLDVADFATTIWQQMEELGMAPALQPTQGAMPAFASAFQRRAGGVLVASHLQSFLEVSYRVLRHLAQP
# B2: Mpl-ER: fusion protein between Mpl and ER (protein)
# chain: QDVSLLASDSEPLKCFSRTFEDLTCFWDEEEAAPSGTYQLLYAYPREKPRACPLSSQSMPHFGTRYVCQFPDQEEVRLFFPLHLWVKNVFLNQTRTQRVLFVDSVGLPAPPSIIKAMGGSQPGELQISWEEPAPEISDFLRYELRYGPRDPKNSTGPTVIQLIATETCCPALQRPHSASALDQSPCAQPTMPWQDGPKQTSPSREASALTAEGGSCLISGLQPGNSYWLQLRSEPDGISLGGSWGSWSLPVTVDLPGDAVALGLQCFTLDLKNVTCQWQQQDHASSQGFFYHSRARCCPRDRYPIWENCEEEEKTNPGLQTPQFSRCHFKSRNDSIIHILVEVTTAPGTVHSYLGSPFWIHQAVRLPTPNLHWREISSGHLELEWQHPSSWAAQETCYQLRYTGEGHQDWKVLEPPLGARGGTLELRPRSRYRLQLRARLNGPTYQGPWSSWSDPTRVETATETAWISLVTALHLVLGLSAVLGLLLLRWQFPAHYRRLRHALWPSLPDLHRVLGQYLRDTAALSPPKATVSDTCEEVEPSLLEILPKSSERTPLPLCSSQAQMDYRRLQPSCLGTMPLSVCPPMAESGSCCTTHIANHSYLPLSYWQQPGTSGDMRAANLWPSPLVIKHTKKNSPALSLTADQMVSALLDAEPPLIYSEYDPSRPFSEASMMGLLTNLADRELVHMINWAKRVPGFGDLNLHDQVHLLECAWLEILMIGLVWRSMEHPGKLLFAPNLLLDRNQGKCVEGMVEIFDMLLATSSRFRMMNLQGEEFVCLKSIILLNSGVYTFLSSTLKSLEEKDHIHRVLDKINDTLIHLMAKAGLTLQQQHRRLAQLLLILSHIRHMSNKGMEHLYNMKCKNVVPLYDLLLEMLDAHRLHAPASRMGVPPEEPSQSQLTTTSSTSAHSLQTYYIPPEAEGFPNTI
# Columns and labels:
# [1] = system: parental and transduced Ba/F3 cultures; assay: Toxicity of E2 or Tm in Ba/F3 cultures with IL-3; conditions: concentrations up to 10^−6 M
# Protocol: (§1) Cultures containing IL-3 or G-CSF were split every three to four days, while Tm-containing cultures were diluted every four days. Cell proliferation assay was performed periodically in 96-well microtiter plates by the 2,3-bis (2-methoxy-4-nitro-5-sulfophenyl)-5-[(phenylamino)-carbonyl]-2H-tetrazolium hydroxide (XTT) method using Cell Proliferation Kit II (Boehringer Mannheim, Mannheim, Germany) [Scudiero D A, et al., Cancer Res., (1988) 48: 4827-4833]. For hormone dose-response analysis, transduced Ba/F3 cells were stimulated by various concentrations of Tm or E2, and XTT assay was performed on day zero and day four. The final concentration of ethanol used to dilute Tm and E2 was 0.1% in all the culture conditions.
# [2] = system: BaF/GCRTmR clones; assay: XTT proliferation assay of BaF/GCRTmR clones; assay type: cell-based; conditions: for growth of GCRTmR-transduced Ba/F3 cells with stimulator: IL-3, 10^−9 M G-CSF, 10^−7 M Tm or 10^−7 M E2, FIG. 17B-D
# Protocol: as §1
# [3] = system: Parental Ba/F3 cells; assay: XTT proliferation assay of parental Ba/F3 cells; assay type: cell-based; conditions: IL-3, 10^−9 M G-CSF, 10^−7 M Tm, 10^−7 M E2; FIG. 17A
# Protocol: as §1
# [4] = system: BaF/ΔGCRTmR clones; assay: XTT proliferation assay of BaF/ΔGCRTmR clones; assay type: cell-based; conditions: 10^−9 M G-CSF or 10^−7 M Tm; FIG. 17E-G
# Protocol: as §1
# [5] = system: Ba/F3 cells into which pCMX-GRΔ(5-195, 725-756)/ER was introduced; assay: XTT proliferation assay, Ba/F3 cells with pCMX-GCRΔ(5-195, 725-756)/ER; assay type: cell-based; conditions: estrogen or G-CSF stimulation
# [6] = system: Ba/F3 cells into which pCMX-GCRER was introduced; assay: XTT proliferation assay, Ba/F3 cells with pCMX-GCRER; assay type: cell-based; conditions: for proliferation of IL-3-independent cells by stimulation: stimulation with G-CSF or estradiol, FIG. 3
# Excerpt: The Ba/F3 cells into which “pCMX-GCRER” was introduced were examined.
# [7] = system: Ba/F3 cells into which pCMX-GCRΔ(5-195)/ER was introduced; assay: XTT proliferation assay, Ba/F3 cells with pCMX-GCRΔ(5-195)/ER; assay type: cell-based; conditions: G-CSF or estradiol stimulation, FIG. 5
# Excerpt: The Ba/F3 cells into which “pCMX-GCRΔ(5-195)/ER” was introduced were then examined.
# [8] = system: GCRER-expressing Ba/F3; conditions: Ito K, et al., Blood (1997), cited from earlier work
# [9] = system: Ba/F3 cells; assay: MTS cell proliferation assay of Ba/F3 cells transduced with Mpl chimeric genes; assay type: cell-based
# Protocol: BOSC23 cells were transfected with MSCV/ΔGCR-ER orMSCV/Mpl-ER or MSCV/ΔGCR-Mpl-ER or MSCV/ΔGCR-Mpl-TmR-IRES-EGFP using Transfection MBS Mammalian Transfection Kit (Stratagene) and the viral supernatants were harvested on day two post-transfection. Fibronectin-assisted transduction of IL3-dependentBa/F3 cells was carried out on 6-well plates precoated with CH296 fibronectin fragment (Retronectin; Takara Shuzo) according to a standard procedure. After retroviral infection, ΔGCR-Mpl-TmR-IRES-EGFP transduced Ba/F3 cells (BaF/ΔGCR-Mpl-TmR) were selected with EPICS Elite ESP Cell Sorter. GFP-positive cells were […] and were cloned by limiting dilution with 10^−7 M 4-hydroxytamoxifen (Tm).
# Cell proliferation assay was periodically performed using CellTier 96 Aqueous One Solution Cell Proliferation Assay {3-(4,5-dimethylthiazol-2-yl)-5-(3-carboxymethoxyphenyl)-2-(4-sulfophenyl)-2H-tetrazolium (MTS); Promega, Madison, Wis.} essentially according to the manufacturer's instruction. In brief, 20 μl per well of MTS-labeling mixture was added. After the incubation at 37° C. for 2 hours, the spectrophotometeical absorbance was measured at the wave length of 490 nm and 650 nm.
# [10] = XTT day four vs day zero, FIG. 19
Molecule,toxic effects [1],optimal concentration of Tm to stimulate BaF/GCRTmR [2],"response to 10 M Tm, clone 3 ([2]; BaF/GCRTmR clone 3, 10 M Tm as printed)",growth of GCRTmR-transduced Ba/F3 cells with stimulator [2],"Tm concentration at which all three clones grew well [2, 10]","time until cells stopped growing and died upon removal of Tm ([2]; long-term culture without IL-3, FIG. 18) [h]","time Tm alone could support the cells in long-term culture ([2]; without IL-3, FIG. 18)",support of untransduced Ba/F3 by stimulator [3],growth of BaF/ΔGCRTmR clones with stimulator [4],"response to 10^−6 M E2, clone 3 ([2]; BaF/GCRTmR clone 3, 10^−6 M E2)","response to 10^−6 M E2, the other clones ([2]; BaF/GCRTmR clones 1 and 2, 10^−6 M E2)","E2 concentration up to which no growth was observed [2, 10]",cell proliferation by stimulation [5],"estradiol concentrations at which cell proliferation was observed ([6]; estradiol varied between 10^−14 and 10^−7 M, FIG. 4)",proliferation of IL-3-independent cells by stimulation [6],cell proliferation by stimulation [7],E2 concentration inducing proliferation of GCRER-expressing Ba/F3 [8],E2 dose optimal to support Ba/F3 cells expressing GCRER or ΔGCRER ([8]; previous study),growth response to TPO in the absence of IL-3 ([9]; 100 ng/ml rhTPO),growth response to estrogen (E2) in the absence of IL-3 ([9]; 10^−7M β-estradiol)
4-hydroxytamoxifen [Tm],neither reagent showed toxic effects,10^−7-10^−6 M,partially responded,grew continuously,10^−7-10^−6 M,≤ 24,at least 36 days,did not support,proliferated,,,,,,,,,,,
"C[C@]12CC[C@@H]3c4ccc(O)cc4CC[C@H]3[C@@H]1CC[C@@H]2O [estradiol, β-estradiol]",,,,had no effect,,,,did not support,,limited response,inert,up to 10^−7 M,cell proliferation was caused,10^−9 to 10^−7 M,proliferated,caused cell proliferation,≥ 10^−10 M,10^−7 M,,
B1,,,,grew continuously,,,,did not support,did not respond,,,,no response,,proliferated,blocked,,,,
B2,,,,,,,,,,,,,,,,,,,acquired the ability to proliferate,acquired the ability to proliferate
